This test has as its target T1, aromatase (CYP19A1) (Homo sapiens, UniProt P11511).
T1 sequence (P11511 1-503): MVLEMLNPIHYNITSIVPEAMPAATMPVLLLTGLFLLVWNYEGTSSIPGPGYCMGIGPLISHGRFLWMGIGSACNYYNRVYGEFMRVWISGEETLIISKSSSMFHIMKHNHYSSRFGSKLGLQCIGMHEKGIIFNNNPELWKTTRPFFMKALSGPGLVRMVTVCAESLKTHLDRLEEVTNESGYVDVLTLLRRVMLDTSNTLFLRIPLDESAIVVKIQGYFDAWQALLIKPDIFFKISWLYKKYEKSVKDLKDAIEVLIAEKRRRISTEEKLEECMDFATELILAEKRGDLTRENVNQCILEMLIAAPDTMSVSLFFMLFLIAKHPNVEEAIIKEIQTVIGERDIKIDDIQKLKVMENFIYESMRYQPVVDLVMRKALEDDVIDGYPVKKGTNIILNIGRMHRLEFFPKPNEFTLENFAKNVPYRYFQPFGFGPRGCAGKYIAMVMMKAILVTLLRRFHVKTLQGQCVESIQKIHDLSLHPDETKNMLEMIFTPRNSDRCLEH
Briefly: tritiated water-release aromatase assay in KGN cells after 24-h exposure. Type of test: cell-based.

For `CC(C)=CCc1c(O)cc(O)c2c1O[C@H](c1ccc(O)cc1)CC2=O` [8-PN, 8-prenylnaringenin], it took 8 nM to reach half-maximal inhibition (IC50).

The term IC50 denotes the concentration that gives 50% inhibition. A lower IC50 goes with greater potency.

The record behind these values is paper PMC5598505 (Toxicology Reports, 2014).
